pIC50: −log10 of the molar value.
Assays:
PTGER2 (EP2) = PTGER2 (EP2) (Homo sapiens (Human), UniProt P43116); test: hEP2 b-arrestin assay (PathHunter HEK 293 PTGER2 b-arrestin cells); format: cell-based; settings: antagonistic activity, beta-arrestin assay; read-out: hEP2 b-arr IC50
Protocol: Plate is pre-incubated 15 minutes at 37° C. Then five microliters of PGE2 (final conc. 5 μM) are transferred into the assay plate. Plate is incubated 120 minutes at 37° C.
(each concentration is measured in duplicate)

PTGER4 (EP4) = PTGER4 (EP4) (Homo sapiens (Human), UniProt P35408); test: cell-based
PTGER4 (EP4), sequence (P35408 whole entry): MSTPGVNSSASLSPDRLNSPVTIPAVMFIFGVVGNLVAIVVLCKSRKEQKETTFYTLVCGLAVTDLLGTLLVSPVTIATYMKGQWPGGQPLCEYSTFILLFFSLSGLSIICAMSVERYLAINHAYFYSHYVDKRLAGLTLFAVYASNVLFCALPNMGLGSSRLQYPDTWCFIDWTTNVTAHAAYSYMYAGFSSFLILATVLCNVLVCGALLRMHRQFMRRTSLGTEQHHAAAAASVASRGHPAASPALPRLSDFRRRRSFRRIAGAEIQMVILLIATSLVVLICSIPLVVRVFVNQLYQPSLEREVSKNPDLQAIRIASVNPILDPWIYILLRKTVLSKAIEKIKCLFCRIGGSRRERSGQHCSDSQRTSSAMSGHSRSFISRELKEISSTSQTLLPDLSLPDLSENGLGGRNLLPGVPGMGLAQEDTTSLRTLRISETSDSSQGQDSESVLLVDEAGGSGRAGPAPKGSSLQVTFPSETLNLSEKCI

PTGER2 (EP2), sequence (P43116 whole entry): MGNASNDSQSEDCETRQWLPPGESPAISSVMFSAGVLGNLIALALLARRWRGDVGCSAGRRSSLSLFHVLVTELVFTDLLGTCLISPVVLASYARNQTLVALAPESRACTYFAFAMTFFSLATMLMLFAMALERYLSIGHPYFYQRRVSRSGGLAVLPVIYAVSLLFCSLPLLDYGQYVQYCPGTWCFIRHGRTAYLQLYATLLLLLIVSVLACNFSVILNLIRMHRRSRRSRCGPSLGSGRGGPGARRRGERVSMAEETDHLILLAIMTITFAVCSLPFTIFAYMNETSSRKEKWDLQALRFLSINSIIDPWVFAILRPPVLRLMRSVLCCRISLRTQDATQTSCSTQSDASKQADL

Structure (SMILES)	pIC50 (PTGER2 (EP2))	pIC50 (PTGER4 (EP4))
CCOc1cc(-c2cc(NCCc3cc(F)c4sccc4c3)ncn2)ccc1C(=O)C(=O)O [Example 537, (2-Ethoxy-4-{6-[2-(7-fluoro-benzo[b]thiophen-5-yl)-ethylamino]-pyrimidin-4-yl}-phenyl)-oxo-acetic acid]	6.17	7.12
COC(=O)c1ccc(-c2cc(NCCc3cc(F)c4sccc4c3)ncn2)cc1OC1CC1 [Example 538, 2-Cyclopropoxy-4-{6-[2-(7-fluoro-benzo[b]thiophen-5-yl)-ethylamino]-pyrimidin-4-yl}-benzoic acid methyl ester]	6.16	7.00
CCc1cc(-c2cc(NCCc3cc(F)c4sccc4c3)ncn2)cc(Cl)c1CC(=O)O [Example 541, (2-Chloro-6-ethyl-4-{6-[2-(7-fluoro-benzo[b]thiophen-5-yl)-ethylamino]-pyrimidin-4-yl}-phenyl)-acetic acid]	6.22	7.06
CCc1cc(-c2cc(NCCc3cc(F)c4sccc4c3)ncn2)cc(C)c1CC(=O)O [Example 542, (2-Ethyl-4-{6-[2-(7-fluoro-benzo[b]thiophen-5-yl)-ethylamino]-pyrimidin-4-yl}-6-methyl-phenyl)-acetic acid]	6.22	7.04
O=c1nc(-c2ccc(-c3cc(NCCc4cc(F)c5sccc5c4)ncn3)cc2)o[nH]1 [Example 543, 5-(4-(6-((2-(7-fluorobenzo[b]thiophen-5-yl)ethyl)amino)pyrimidin-4-yl)phenyl)-[1,2,4]oxadiazol-3(2H)-one]	6.21	6.91
Cc1cc(-c2cc(NCCc3cc(F)c4sccc4c3)ncn2)ccc1CC(=O)O [Example 544, (4-{6-[2-(7-Fluoro-benzo[b]thiophen-5-yl)-ethylamino]-pyrimidin-4-yl}-2-methyl-phenyl)-acetic acid]	6.07	6.34
Cc1cc(-c2cc(NCCc3cc(F)c4sccc4c3)ncn2)cc(Cl)c1CC(=O)O [Example 546, (2-Chloro-4-{6-[2-(7-fluoro-benzo[b]thiophen-5-yl)-ethylamino]-pyrimidin-4-yl}-6-methyl-phenyl)-acetic acid]	6.01	6.78
CCn1cc(-c2cc(NCCc3cc(F)c4sccc4c3)ncn2)cc1C(=O)O [Example 547, 1-Ethyl-4-{6-[2-(7-fluoro-benzo[b]thiophen-5-yl)-ethylamino]-pyrimidin-4-yl}-1H-pyrrole-2-carboxylic acid]	6.08	6.49
CCCn1cc(-c2cc(NCCc3cc(F)c4sccc4c3)ncn2)cc1C(=O)O [Example 548, 4-{6-[2-(7-Fluoro-benzo[b]thiophen-5-yl)-ethylamino]-pyrimidin-4-yl}-1-propyl-1H-pyrrole-2-carboxylic acid]	6.03	6.53
CCCc1cc(-c2cc(NCCc3cc(F)c4sccc4c3)ncn2)cc(OCC)c1C(=O)O [Example 551, 2-Ethoxy-4-{6-[2-(7-fluoro-benzo[b]thiophen-5-yl)-ethylamino]-pyrimidin-4-yl}-6-propyl-benzoic acid]	6.05	6.06
O=C(O)c1ccc(-c2cc(NCCc3cc(F)c4sccc4c3)ncn2)cc1F [Example 554, 2-Fluoro-4-{6-[2-(7-fluoro-benzo[b]thiophen-5-yl)-ethylamino]-pyrimidin-4-yl}-benzoic acid]	6.13	6.05
Cc1cc(-c2cc(NCCc3cc(F)c4sccc4c3)ncn2)ccc1C(=O)O [Example 555, 4-{6-[2-(7-Fluoro-benzo[b]thiophen-5-yl)-ethylamino]-pyrimidin-4-yl}-2-methyl-benzoic acid]	6.05	6.08
CCCc1cc(-c2cc(NCCc3cc(F)c4sccc4c3)ncn2)ccc1C1(C(=O)O)CC1 [Example 557, 1-(4-{6-[2-(7-Fluoro-benzo[b]thiophen-5-yl)-ethylamino]-pyrimidin-4-yl}-2-propyl-phenyl)-cyclopropanecarboxylic acid]	6.00	6.93
O=C(O)c1ccc(-c2cc(NCCc3cc(F)c4sccc4c3)ncn2)c2cc[nH]c12 [Example 558, 4-{6-[2-(7-Fluoro-benzo[b]thiophen-5-yl)-ethylamino]-pyrimidin-4-yl}-1H-indole-7-carboxylic acid]	6.16	6.27
O=C(O)c1n[nH]c2cc(-c3cc(NCCc4cc(F)c5sccc5c4)ncn3)ccc12 [Example 562, 6-{6-[2-(7-Fluoro-benzo[b]thiophen-5-yl)-ethylamino]-pyrimidin-4-yl}-1H-indazole-3-carboxylic acid]	6.10	6.16
O=C(O)c1ccc(-c2cc(NCCc3cc(F)c4sccc4c3)ncn2)cc1O [Example 563, 4-{6-[2-(7-Fluoro-benzo[b]thiophen-5-yl)-ethylamino]-pyrimidin-4-yl}-2-hydroxy-benzoic acid]	6.01	6.24
CCOc1c(CC(=O)O)ccc(-c2cc(NCCc3cc(F)c4sccc4c3)ncn2)c1F [Example 564, (2-Ethoxy-3-fluoro-4-{6-[2-(7-fluoro-benzo[b]thiophen-5-yl)-ethylamino]-pyrimidin-4-yl}-phenyl)-acetic acid]	6.09	6.67

The next molecules have a higher pIC50 (PTGER2 (EP2)) than those just listed; values first:

pIC50 (PTGER2 (EP2))	pIC50 (PTGER4 (EP4))	Structure (SMILES)
6.24	6.41	CCOc1c(C(=O)O)ccc(-c2cc(NCCc3cc(F)c4sccc4c3)ncn2)c1F [Example 552, 2-Ethoxy-3-fluoro-4-{6-[2-(7-fluoro-benzo[b]thiophen-5-yl)-ethylamino]-pyrimidin-4-yl}-benzoic acid]
6.25	6.72	O=C(O)c1coc2cc(-c3cc(NCCc4cc(F)c5sccc5c4)ncn3)ccc12 [Example 549, 6-{6-[2-(7-Fluoro-benzo[b]thiophen-5-yl)-ethylamino]-pyrimidin-4-yl}-benzofuran-3-carboxylic acid]
6.32	6.87	COc1cc(-c2cc(NCCc3cc(F)c4sccc4c3)ncn2)ccc1CCC(=O)O [Example 560, 3-(4-{6-[2-(7-Fluoro-benzo[b]thiophen-5-yl)-ethylamino]-pyrimidin-4-yl}-2-methoxy-phenyl)-propionic acid]
6.34	6.65	Fc1cc(CCNc2cc(-c3ccc4[nH]ccc4c3)ncn2)cc2ccsc12 [Example 539, [2-(7-Fluoro-benzo[b]thiophen-5-yl)-ethyl]-[6-(1H-indol-5-yl)-pyrimidin-4-yl]amine]
6.40	7.60	CCc1cc(-c2cc(NCCc3cc(F)c4sccc4c3)ncn2)sc1CC(=O)O [Example 545, (3-Ethyl-5-{6-[2-(7-fluoro-benzo[b]thiophen-5-yl)-ethylamino]-pyrimidin-4-yl}-thiophen-2-yl)-acetic acid]
6.41	6.99	O=C(O)c1cccc2cc(-c3cc(NCCc4cc(F)c5sccc5c4)ncn3)[nH]c12 [Example 561, 2-{6-[2-(7-Fluoro-benzo[b]thiophen-5-yl)-ethylamino]-pyrimidin-4-yl}-1H-indole-7-carboxylic acid]
6.43	7.20	CCOc1cc(-c2cc(NCCc3cc(F)c4sccc4c3)ncn2)ccc1-c1cc(O)no1 [Example 550, 5-(2-Ethoxy-4-{6-[2-(7-fluoro-benzo[b]thiophen-5-yl)-ethylamino]-pyrimidin-4-yl}-phenyl)-isoxazol-3-ol]
6.47	6.84	O=C(O)Cc1ccc(-c2cc(NCCc3cc(F)c4sccc4c3)ncn2)cc1OC(F)F [Example 540, (2-Difluoromethoxy-4-{6-[2-(7-fluoro-benzo[b]thiophen-5-yl)-ethylamino]-pyrimidin-4-yl}-phenyl)-acetic acid]
6.52	7.10	COc1cc(-c2cc(NCCc3cc(F)c4sccc4c3)ncn2)ccc1-c1cc(O)no1 [Example 553, 5-(4-{6-[2-(7-Fluoro-benzo[b]thiophen-5-yl)-ethylamino]-pyrimidin-4-yl}-2-methoxy-phenyl)-isoxazol-3-ol]
6.53	6.80	CCOc1cc(-c2cc(NCCc3ccc4ccccc4c3C)ncn2)ccc1Cc1noc(=O)[nH]1 [Example 566, 3-(2-Ethoxy-4-{6-[2-(1-methyl-naphthalen-2-yl)-ethylamino]-pyrimidin-4-yl}-benzyl)-[1,2,4]oxadiazol-5(4H)-one]
6.59	6.58	CCOc1cc(-c2cc(NCCc3ccc4ccccc4c3C)ncn2)ccc1Cc1noc(=S)[nH]1 [Example 567, 3-(2-Ethoxy-4-{6-[2-(1-methyl-naphthalen-2-yl)-ethylamino]-pyrimidin-4-yl}-benzyl)-[1,2,4]oxadiazole-5(4H)-thione]
6.61	7.72	CCCc1cc(-c2cc(NCCc3cc(F)c4sccc4c3)ncn2)sc1CC(=O)O [Example 556, (5-{6-[2-(7-Fluoro-benzo[b]thiophen-5-yl)-ethylamino]-pyrimidin-4-yl}-3-propyl-thiophen-2-yl)-acetic acid]
7.24	7.64	CCOc1cc(-c2cc(NCCc3ccc4ccccc4c3C)ncn2)ccc1-c1noc(=S)[nH]1 [Example 565, 3-(2-Ethoxy-4-{6-[2-(1-methyl-naphthalen-2-yl)-ethylamino]-pyrimidin-4-yl}-phenyl)-[1,2,4]oxadiazole-5(4H)-thione]
